Consider 19 molecules from patent US20090233795A1, “Fungicidal Mixtres Based On 3-Monosubstituted N-Bipenyl-Pyrazolecarboxamides” (BASF Akitengesellschaft, priority 2005, published 2009).

The subject of one series is Pyrenophora teres. Briefly: Activity against net blotch of barley, 1 day protective application. It is filed as in vivo, Pyrenophora [syn. Drechslera] teres. The conditions noted are these: sprayed 24 hours before inoculation, rated after 6 days.
Another series relates to Botrytis cinerea. Briefly: Activity against gray mold on bell pepper leaves, 1 day protective application. It is filed as in vivo. The conditions noted are these: sprayed 1 day before inoculation, rated after 5 days.
Series [1] relates to Puccinia recondita. Briefly: Curative activity against brown rust of wheat. The conditions noted are these: sprayed the day after inoculation, 7 days. It is filed as in vivo.
In series [2] the test system is Erysiphe [syn. Blumeria] graminis forma specialis. tritici. Briefly: Activity against mildew of wheat. The conditions noted are these: 1 mg/l, sprayed 24 hours before inoculation, rated after 7 days. It is filed as in vivo.
The next series relates to Pyricularia oryzae. It counts as cell-based. The conditions noted are these: microtiter plate, 405 nm, day 7.
For series [3], the system named is Puccinia recondita. Briefly: Protective activity against brown rust of wheat. It is filed as in vivo. The settings on record: 16 mg/l, sprayed the day before inoculation.
For a further series, the system named is Septoria tritici. Briefly: Activity against the speckled leaf blotch pathogen in the microtiter test. It counts as cell-based. The settings on record: microtiter plate, 405 nm, day 7.

Like-named read-outs stand apart in the source and are kept apart here.

Take `Fc1ccc([C@]2(Cn3cncn3)O[C@H]2c2ccccc2Cl)cc1` (racemic) [epoxiconazole, (2RS,3SR)-1-[3-(2-chlorophenyl)-2,3-epoxy-2-(4-fluorophenyl)propyl]-1H-1,2,4-triazole]: the “Observed activity (% infection)” value with Pyrenophora teres (1 mg/l) is on record as 0%.

Regarding `CC1CCN(c2c(-c3c(F)cc(F)cc3F)c(Cl)nc3ncnn23)CC1` [5-chloro-7-(4-methylpiperidin-1-yl)-6-(2,4,6-trifluorophenyl)-[1,2,4]triazolo[1,5-a]pyrimidine, reference compound], the results for the “Observed activity (% infection)” value in the series with Botrytis cinerea (4 mg/l) and in the series on Puccinia recondita [1] (1 mg/l) were 40% and 0%, respectively. In turn, `Cn1cc(C(=O)Nc2ccccc2-c2cccc(Cl)c2)c(C(F)(F)F)n1` [No. I.1, N-(3′-chlorobiphenyl-2-yl)-1-methyl-3-trifluoromethyl-1H-pyrazole-4-carboxamide] yielded a melting point of 92 to 94 °C. In addition, the “Observed activity (% infection)” value in the series with Botrytis cinerea (1 mg/l) is given as 0%. The “Observed activity (% infection)” value in series [2] came out at 0%. Further, the “Observed activity (% infection)” value in the series with Pyrenophora teres (4 mg/l) was 26%. Moreover, the “Observed activity (% infection)” value in the series on Pyricularia oryzae (4 mg/l) stood at 0%. In the case of `Cn1cc(C(=O)Nc2ccccc2-c2cccc(C(F)(F)F)c2)c(C(F)(F)F)n1` [No. I.4, N-(3′-trifluoromethylbiphenyl-2-yl)-1-methyl-3-trifluoromethyl-1H-pyrazole-4-carboxamide], the melting point was in the range of 132 to 134 °C. The “Observed activity (% infection)” value with Puccinia recondita [3] is listed as 0%. Also, the “Observed activity (% infection)” value in the series on Septoria tritici (0.25 mg/l) turned out to be 20%. The molecule `Cn1cc(C(=O)Nc2ccccc2-c2cccc(C#N)c2)c(C(F)(F)F)n1` [No. I.5, 1-methyl-3-trifluoromethyl-N-(ortho-(3-cyanophenyl)phenyl)pyrazole-4-carboxamide] returned a melting point of 76 to 78 °C. `Cn1cc(C(=O)Nc2ccccc2-c2cccc(C(F)(F)F)c2)c(C(F)F)n1` [No. I.9, N-(3′-trifluoromethylbiphenyl-2-yl)-1-methyl-3-difluoromethyl-1H-pyrazole-4-carboxamide] came in with a melting point of 124 to 125 °C. In series [2], the “Observed activity (% infection)” value is 0%. In the series on Puccinia recondita [1] (0.25 mg/l), the “Observed activity (% infection)” value came to 11%.

Regarding `Cc1nn(C)cc1C(=O)Nc1ccccc1-c1cccc(Cl)c1` [No. I.10, N-(3′-chlorobiphenyl-2-yl)-1,3-dimethyl-1H-pyrazole-4-carboxamide], the melting point lay in the range of 104 to 106 °C.

For `Cn1cc(C(=O)Nc2ccccc2-c2cccc(Cl)c2)c(CF)n1` [No. I.11, N-(3′-chlorobiphenyl-2-yl)-1-methyl-3-fluoromethyl-1H-pyrazole-4-carboxamide], the melting point lay within 96 to 99 °C.

Molecule `Cn1cc(C(=O)Nc2ccccc2-c2cccc(Cl)c2)c(C(F)F)n1` [No. I.12, N-(3′-chlorobiphenyl-2-yl)-1-methyl-3-difluoromethyl-1H-pyrazole-4-carboxamide] showed a melting point of 110 to 112 °C. As for `Cn1cc(C(=O)Nc2ccccc2-c2cccc(F)c2)c(CF)n1` [No. I.13, N-(3′-fluorobiphenyl-2-yl)-1-methyl-3-fluoromethyl-1H-pyrazole-4-carboxamide], the melting point fell in the range of 138 to 141 °C. The same measure, in the same setting: the figure for `Cn1cc(C(=O)Nc2ccccc2-c2cccc(F)c2)c(C(F)F)n1` [No. I.14, N-(3′-fluorobiphenyl-2-yl)-1-methyl-3-difluoromethyl-1H-pyrazole-4-carboxamide] is 130 to 135 °C. The same measure, in the same setting: the figure for `Cc1nn(C)c(F)c1C(=O)Nc1ccccc1-c1cccc(C#N)c1` [No. I.15, N-(3′-cyanobiphenyl-2-yl)-1,3-dimethyl-5-fluoro-1H-pyrazole-4-carboxamide] is 137 to 138 °C; for `Cc1nn(C)c(F)c1C(=O)Nc1ccccc1-c1cccc([N+](=O)[O-])c1` [No. I.16, N-(3′-nitrobiphenyl-2-yl)-1,3-dimethyl-5-fluoro-1H-pyrazole-4-carboxamide] it is 137 to 139 °C; for `Cc1nn(C)c(F)c1C(=O)Nc1ccccc1-c1cccc(C(F)(F)F)c1` [No. I.17, N-(3′-trifluoromethylbiphenyl-2-yl)-1,3-dimethyl-5-fluoro-1H-pyrazole-4-carboxamide] it is 113 to 114 °C. Take `COc1ccc(C(=CC(=O)N2CCOCC2)c2ccc(Cl)cc2)cc1OC` [dimethomorph, 3-(4-chlorophenyl)-3-(3,4-dimethoxyphenyl)-1-morpholin-4-yl-propenone]: the “Observed activity (% infection)” value in the series on Puccinia recondita [1] (1 mg/l) and in the series with Pyrenophora teres (16 mg/l) was 0% throughout.

For `COc1cc(C)c(C(=O)c2c(OC)ccc(Br)c2C)c(OC)c1OC` [metrafenone, 3′-bromo-2,3,4,6′-tetramethoxy-2′,6-dimethylbenzophenone], the “Observed activity (% infection)” value in the series on Puccinia recondita [1] (1 mg/l) and in the series with Pyrenophora teres (16 mg/l) was 0% each time.

As for `COC(=O)N(OC)c1ccccc1COc1ccn(-c2ccc(Cl)cc2)n1` [pyraclostrobin, methyl N-{2-[1-(4-chlorophenyl)-1H-pyrazol-3-yloxymethyl]phenyl}(N-methoxy)carbamate, reference compound], the “Observed activity (% infection)” value in series [2] stood at 40%. Turning to `CC1(C)CC/C(=C\c2ccc(Cl)cc2)C1(O)Cn1cncn1` (stereo not shown) [triticonazole, (5E)-5-[(4-chlorophenyl)methylene]-2,2-dimethyl-1-(1H-1,2,4-triazol-1-ylmethyl)cyclopentanol, reference compound], the “Observed activity (% infection)” value in series [2] turned out to be 40%. “zinc ammoniate ethylenebis(dithiocarbamate) [metiram, reference compound]”: the “Observed activity (% infection)” value with Septoria tritici (1 mg/l) is 1%; with Pyricularia oryzae (16 mg/l), 52%.

One may read the melting point as the temperature of the solid-liquid transition.
